Data on 4 compounds can be found in publication PMC11391043, “Revealing the pH-dependent conformational changes in sol g 2.1 protein and potential ligands binding” (Scientific Reports, 2024).

Assay [1] addresses T1, rSol g 2.1 protein (Solenopsis geminata, UniProt A0A9E7V488).
T1 sequence (A0A9E7V488 1-119): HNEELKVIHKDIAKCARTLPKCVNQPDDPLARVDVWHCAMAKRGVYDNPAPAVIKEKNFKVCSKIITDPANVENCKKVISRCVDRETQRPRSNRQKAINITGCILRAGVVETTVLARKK
Nature of the assay: Fluorescence binding assay of 1-NPN probe with rSol g 2.1 (Scatchard plots). The note with it: 50 mM Tris-HCl, ± SEM, triplicate. From the text: The FCBA is that a fluorescence probe, N-phenyl-1-naphthylamine (1-NPN, purity > 98%, Sigma Aldrich) binds with the hydrophobic binding cavity of the protein, especially with Tryptophan amino acid (Trp). Then Trp will transfer energy to 1-NPN-probe, leading to an increased emission wavelength at approximately 400 nm with dose-dependent. Besides, when the aliquot of a ligand competitor, the ligand will be competed for 1-NPN-probe, resulting in a decreased emission wavelength at 400 nm. In this study, we performed the FCBA to determine the binding activity of Sol g 2.1 protein and the potential ligands. […] Fluorescence intensity was measured using a spectrofluorometer (FluoroMax + SpectroFluorometer, Horiba Scientific) with excitation at 337 nm and emission scanning from 370 to 490 nm, at room temperature, in triplicate. The equilibrium dissociation (Kd) value was determined by plotting the fluorescence intensity at 400 nm against each 1-NPN concentration. The data were fitted to a one-site-specific binding model as follows: Y = Bmax*X/(Kd + X), where Y, X, Bmax, and Kd are the fluorescence intensity (counts/second), fluorescence probe concentration (μM), the maximum specific binding in the same units as Y, and the equilibrium dissociation constant in the same units as X.

Assay [2] addresses T1, rSol g 2.1 protein. Nature of the assay: Fluorescence competitive binding assay (FCBA), 1-NPN displacement. The note with it: 2 µM rSol g 2.1, 5 µM 1-NPN. An excerpt: The FCBA is that a fluorescence probe, N-phenyl-1-naphthylamine (1-NPN, purity > 98%, Sigma Aldrich) binds with the hydrophobic binding cavity of the protein, especially with Tryptophan amino acid (Trp). Then Trp will transfer energy to 1-NPN-probe, leading to an increased emission wavelength at approximately 400 nm with dose-dependent. Besides, when the aliquot of a ligand competitor, the ligand will be competed for 1-NPN-probe, resulting in a decreased emission wavelength at 400 nm. In this study, we performed the FCBA to determine the binding activity of Sol g 2.1 protein and the potential ligands. To examine affinity binding, a stock solution of 5 mM 1-NPN in methanol (HPLC grade) was gradually added to a solution containing 2 µM rSol g 2.1 in 50 mM Tris–HCl buffer (pH 5.5 and pH 7.4) with 1% tween 20. Final concentrations of 0, 0.5, 1, 2, 4, 6, 8, 10, and 12 µM of 1-NPN were achieved, with methanol serving as a negative control. Fluorescence intensity was measured using a spectrofluorometer (FluoroMax + SpectroFluorometer, Horiba Scientific) with excitation at 337 nm and emission scanning from 370 to 490 nm, at room temperature, in triplicate. The equilibrium dissociation (Kd) value was determined by plotting the fluorescence intensity at 400 nm against each 1-NPN concentration. The data were fitted to a one-site-specific binding model as follows: Y = Bmax*X/(Kd + X), where Y, X, Bmax, and Kd are the fluorescence intensity (counts/second), fluorescence probe concentration (μM), the maximum specific binding in the same units as Y, and the equilibrium dissociation constant in the same units as X.
The potential ligands, including (E)-β-Farnesene, α-Caryophyllene, and 1-Octen-3-ol (all, Tokyo Chemical Industry (TCI), Tokyo, Japan) were used as competitors in the FCBA. For this, a mixture of 2 µM rSol g 2.1 protein and 5 µM 1-NPN in 50 mM Tris–HCl buffer (pH 5.5 and pH 7.4) with 1% tween 20 was titrated with each ligand (5 mM stock in methanol) to final concentrations of 0, 2, 4, 6, 8, 10, 12, 14, 20, 24, 28, and 32 µM. The fluorescence intensity at 400 nm for each concentration was fitted to the One Site-Fit Ki model to determine the dissociation constant of competitor ligands (Ki) as follows: logEC50 = log (10^logKi*(1 + RadioligandNM/HotKdNM))[22],[57]. Here, RadioligandNM represents the concentration of fixed 1-NPN (nM), HotKdNM represents Kd (nM), and Ki represents the equilibrium dissociation constant (Molar). All experiments were conducted in triplicate and analyzed using GraphPad Prism 9 software (San Diego, CA, USA)[22].

On to `c1ccc(Nc2cccc3ccccc23)cc1` [1-NPN, N-phenyl-1-naphthylamine], for which the equilibrium dissociation constant (Kd) on rSol g 2.1 protein [1] (pH 5.5) is 4830 ± 30 nM; on rSol g 2.1 protein [1] (pH 7.4) it was 2330 ± 50 nM.

With `C=CC(O)CCCCC` (centres unmarked) [1-Octen-3-ol], the Ki is 5610 nM at rSol g 2.1 protein [2] (pH 5.5) and 2000 nM at rSol g 2.1 protein [2] (pH 7.4).

Turning to `C=CC(=C)CC/C=C(\C)CCC=C(C)C` [(E)-β-Farnesene], the results for the inhibitory constant (Ki) on rSol g 2.1 protein [2] (pH 5.5) and on rSol g 2.1 protein [2] (pH 7.4) were 1240 nM and 720 nM, respectively.

As for `C/C1=C\CC/C(C)=C/CC(C)(C)/C=C/C1` [α-Caryophyllene], the Ki on rSol g 2.1 protein [2] (pH 5.5) came to 16000 nM; on rSol g 2.1 protein [2] (pH 7.4), 1060 nM.

In general, Kd refers to the constant that tells how readily two partners part at equilibrium. A low value points to tighter binding. As a reminder, the Ki is a dissociation constant, usually derived from enzyme kinetics or from competition with a known ligand.
